In US5985603A, “P2x receptor DNA and protein sequence” (Glaxo Group Limited, priority 1994, dated 1999):

What was measured:
[1] = molecular target: T1, rat vas deferens P2X receptor (Rattus norvegicus, UniProt P47824); experiment: electrophysiological recording in CHO cells stably transfected with rat vas deferens P2X receptor; assay type: cell-based; conditions: up to 30 μM
T1 construct: cRNA in Xenopus oocytes; stably transfected CHO cells
T1 sequence (P47824 1-399): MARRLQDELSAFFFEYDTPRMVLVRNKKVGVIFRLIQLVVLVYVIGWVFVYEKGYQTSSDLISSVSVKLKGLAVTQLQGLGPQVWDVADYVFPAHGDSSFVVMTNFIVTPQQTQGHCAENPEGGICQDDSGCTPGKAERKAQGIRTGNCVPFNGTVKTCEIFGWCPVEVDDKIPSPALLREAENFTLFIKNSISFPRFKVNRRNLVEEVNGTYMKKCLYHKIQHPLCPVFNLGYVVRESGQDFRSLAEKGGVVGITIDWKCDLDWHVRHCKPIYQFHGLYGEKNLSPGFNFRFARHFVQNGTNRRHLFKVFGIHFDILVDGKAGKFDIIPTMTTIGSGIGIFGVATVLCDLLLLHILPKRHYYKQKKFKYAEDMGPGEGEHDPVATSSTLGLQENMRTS
Description: (§1) CHO cells were stably transfected by a method used for other ion channels (Claudio, Meth. Enzymol. 207 391-408 (1992)). Transfection was confirmed by a) electro-physiological recording and b) radioligand binding. […] [^3 H]αβmethyleneATP binding was more than 600 cpm per million transfected cells with less than 80 cpm nonspecific binding.

[2] = molecular target: T2, rat vas/human bladder P2X cDNA clone (Homo sapiens, UniProt P51575); experiment: functional properties of cloned P2X receptors (electrical recordings): bladder; assay type: cell-based
T2 construct: expressed in transfected cells; host or cells: HEK293 cells (oocytes are also named for the functional characterisation)
T2 sequence (P51575 1-399): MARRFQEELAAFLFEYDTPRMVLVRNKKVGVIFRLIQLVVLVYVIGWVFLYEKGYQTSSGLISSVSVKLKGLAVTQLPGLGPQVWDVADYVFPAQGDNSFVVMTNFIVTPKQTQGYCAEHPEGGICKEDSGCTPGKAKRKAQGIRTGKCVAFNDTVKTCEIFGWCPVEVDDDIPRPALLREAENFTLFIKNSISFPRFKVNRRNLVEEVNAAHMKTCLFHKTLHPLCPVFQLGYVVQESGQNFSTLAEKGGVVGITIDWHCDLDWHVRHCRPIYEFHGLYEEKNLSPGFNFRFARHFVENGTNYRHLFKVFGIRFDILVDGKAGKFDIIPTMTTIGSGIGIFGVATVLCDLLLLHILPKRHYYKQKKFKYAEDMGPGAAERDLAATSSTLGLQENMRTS
Protocol: DNA concentration used was 1 mg/2 ml medium placed into a 35 mm petri dish containing four 11 mm diameter coverslips on which HEK cells were placed at 10,000 cells per coverslip. […] Currents were recorded from HEK 293 cells using whole-cell recording methods and the AXOPATCH™ 200 amplifier (Axon Instruments); patch pipettes (5 M.OMEGA.) contained (mM) Cs or K aspartate 140, NaCl 5, EGTA 11, HEPES 5. […] All recordings performed at room temperature. Data acquisition and analysis were performed using pCLAMP™ and AXOGRAPH™ software (Axon Instruments). […] ATP was applied by U-tube typically for 1 s; data was sampled at 5 kHz in 2 s segments beginning 300 ms prior to onset of agonist (ATP) application and filtered at 1 kHz.

hP2X = molecular target: T3, hP2X (Homo sapiens, UniProt P51575); experiment: inward currents evoked by purinoceptor agonists in Xenopus oocytes expressing hP2X; assay type: cell-based
T3 construct: expressed in transfected cells; host or cells: Xenopus oocytes injected with in vitro transcribed RNA
T3 sequence (P51575 1-399): T2 sequence (P51575 1-399)
Protocol: Human urinary bladder P2X cDNA, subcloned into the pBKCMV expression vector, was linearized with Notl, and transcribed in vitro with T3 polymerase in the presence of cap analogue m7G(5')ppp(5')G. Defolliculated Xenopus oocytes (Bertrand et al, Electrophysiology of neuronal nicotinic acetylcholine receptors expressed in Xenopus oocytes following nuclear injection of genes or cDNAs Meth Neurosci 4: 174-193 (1991)) were injected with 50 ng of human P2X in vitro transcribed RNA, and incubated at 18° C. for 2-6 days in the ND96 solution (mM): NaCl96, KCl2, MgCl2 1, CaCl2 2, sodium pyruvate 5, HEPES 5, ph 7.6-7.5, penicillin (10 U/ml), and streptomycin (10 μg/ml).
Oocytes were placed in a 1 ml chamber and superfused at 2-3 ml/min with ND96 solution with 0.1 mM BaCl2 replacing the 2 mM CaCl2 to prevent activation of endogenous calcium-activated chloride currents (Barish, A transient calcium-dependent chloride current in the immature Xenopus oocytes J Physiol 342: 309-325 (1983)). Currents were measured using a two-electrode voltage-clamp amplifier (Geneclamp Axon Instruments)at a holding potential of -60 mV. Microelectrodes were filled with 3 M KCl (0.5-2 M.OMEGA.). Data were collected using PClamp software (Axon Instruments). […] Antagonists were applied both in the superfusate and together with ATP in the U-tube solution.
Concentration response curves for purinoceptor agonists were fitted with a Hill slope of 1. […] Data are presented throughout as mean ± SEM for a given number of oocytes.

[3] = tested on: non-transfected CHO cells; experiment: electrophysiological recording in non-transfected CHO cells (control); assay type: cell-based, chinese hamster; conditions: up to 30 μM; 45 of 45 cells
Description: as §1

[4] = molecular target: T1, rat vas deferens P2X receptor; experiment: ATP-evoked currents, rat vas deferens P2X receptor clone in oocytes; assay type: cell-based; conditions: ATP (>1 μM), second application 10 mins after the first
Protocol: 50 nl (200 ng) of RNA was injected into defolliculated Xenopus oocytes. After incubation for 2-6 days at 18° C., the oocytes were assayed for ATP-evoked currents by a two-electrode voltage clamp ([…]™); one electrode is to hold the voltage constant (at -100 mV), and the other is to measure the currents. […] Microelectrodes (0.5-2 M.OMEGA.) were filled with 3M KCl.

P2X-purinoceptor = conditions: cited from earlier work
[5] = ATP higher concentrations (1 μM)

Compound: Nc1ncnc2c1ncn2[C@@H]1O[C@H](COP(=O)([O-])OP(=O)([O-])OP(=O)([O-])[O-])[C@@H](O)[C@H]1O.[Mg+2].[Mg+2] [ATP, adenosine 5'-triphosphate magnesium salt]
- rapidly desensitising inward currents, CHO cells responding [1]: rapidly desensitising inward currents in 14 of 14 CHO cells
- EC50 [2]: 700 nM
- response to repeated application (hP2X; 100 μM ATP for 5 s every 10 min): reproducible inward currents
- reversal of current on washout (hP2X; ATP): returned to control values on washout
- time over which responses developed (hP2X; ATP 30-300 nM): 3 to 5 s
- response after 5 s of continued application, of the peak amplitude (hP2X; [5]): 40-60
- time to peak of response (hP2X; [5]): 1 to 1.5 s
- variation in peak amplitude on repeated application (hP2X; ATP up to 1 mM for 5 s every 10 mins): < 10%
- comparison of concentration-effect curves (hP2X; ATP, 2MeSATP and 2-chloro-ATP): superimposable
- agonist profile (rank order) (hP2X; oocytes expressing hP2X): 2MeSATP≥ATP>α,β,-meATP
- activation at 10 µM (hP2X; read-out: response to 10 μM ATP, % of peak response to ATP): ~90%
- effect in non-transfected cells [3]: no effect in 45 of 45 non-transfected cells
- inward current evoked by second application, of the initial peak amplitude [4]: ~ 50%
- agonist potency order in whole tissue studies (P2X-purinoceptor): α,β,-meATP >>2MeSATP≥ATP
